Assay results from PubChem BioAssay AID1963446 (Molecular Pharmacology Branch, DTP, NCI, 2024).

Test system: 993429-296-R-J1-PDC complex spheroid growth, percent test/control
Assay: Anticancer human tumor 993429-296-R-J1-PDC patient-derived uterine sarcoma cell line growth inhibition [Asc]
Conditions: for IC50: curve of first compound; for viability, T/C: stronger effect = lower value; active = viability on the fitted dose curve at most 10% of control; inactive = the rest
Method in brief: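 Complex solid-tumor spheroids incorporating human endothelial and mesenchymal stem cells received single agents or combinations over half-log dilution ranges anchored to clinical Cmax.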

[1] = second compound 0.03 µM, first compound 0.0316 µM
[2] = second compound 0.03 µM, first compound 0.1 µM
[3] = second compound 0.03 µM, first compound 0.316 µM
[4] = second compound 0.03 µM, first compound 1 µM
[5] = second compound 0.03 µM, first compound 3.16 µM
[6] = second compound 0.03 µM, first compound 10 µM
[7] = second compound 0.0949 µM, first compound 0.0316 µM
[8] = second compound 0.0949 µM, first compound 0.1 µM
[9] = second compound 0.0949 µM, first compound 0.316 µM
[10] = second compound 0.0949 µM, first compound 1 µM
[11] = second compound 0.0949 µM, first compound 3.16 µM
[12] = second compound 0.0949 µM, first compound 10 µM
[13] = second compound 0.3 µM, first compound 0.0316 µM
[14] = second compound 0.3 µM, first compound 0.1 µM
[15] = second compound 0.3 µM, first compound 0.316 µM
[16] = second compound 0.3 µM, first compound 1 µM
[17] = second compound 0.3 µM, first compound 3.16 µM
[18] = second compound 0.3 µM, first compound 10 µM
[19] = second compound 0.949 µM, first compound 0.0316 µM
[20] = second compound 0.949 µM, first compound 0.1 µM
[21] = second compound 0.949 µM, first compound 0.316 µM
[22] = second compound 0.949 µM, first compound 1 µM
[23] = second compound 0.949 µM, first compound 3.16 µM
[24] = second compound 0.949 µM, first compound 10 µM
[25] = second compound 3 µM, first compound 0.0316 µM
[26] = second compound 3 µM, first compound 0.1 µM
[27] = second compound 3 µM, first compound 0.316 µM
[28] = second compound 3 µM, first compound 1 µM
[29] = second compound 3 µM, first compound 3.16 µM
[30] = second compound 3 µM, first compound 10 µM
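Note: spheroids exposed to compounds for seven days.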

C#Cc1c(F)ccc2cc(O)cc(-c3ncc4c(N5CC6CCC(C5)N6)nc(OCC56CCCN5CC(F)C6)nc4c3F)c12 (stereo not given) + CCN1C(C(=O)NC23CCC(C(=O)O)(CC2)CC3)C(c2cccc(Cl)c2F)C2(C(=O)Nc3cc(Cl)ccc32)C12CCCCC2
active: viability, T/C [6] 2.52% | viability, T/C [12] 8.51% | viability, T/C [18] 5.39% | viability, T/C [24] 1.38%
5140 nM: IC50 (second compound 0.03 µM)
inactive: viability, T/C [1] 93.3% | viability, T/C [2] 96.5% | viability, T/C [3] 106% | viability, T/C [4] 84% | viability, T/C [5] 86.3% | viability, T/C [7] 96.1% | viability, T/C [8] 95.4% | viability, T/C [9] 83.8% | viability, T/C [10] 115% | viability, T/C [11] 86.2% | viability, T/C [13] 87.8% | viability, T/C [14] 95.3% | viability, T/C [15] 90.3% | viability, T/C [16] 117% | viability, T/C [17] 92.2% | viability, T/C [19] 104% | viability, T/C [20] 98.5% | viability, T/C [21] 107% | viability, T/C [22] 98.5% | viability, T/C [23] 89.8% | viability, T/C [25] 100% | viability, T/C [26] 96.7% | viability, T/C [27] 96.6% | viability, T/C [28] 109% | viability, T/C [29] 73.5% | viability, T/C [30] 12.8%
5550 nM: IC50 (second compound 0.3 µM)
4940 nM: IC50 (second compound 3 µM)
5320 nM: IC50 (second compound 0.949 µM)
5400 nM: IC50 (second compound 0.0949 µM)

C=C(F)C(=O)N1CCN(c2nc(OCC3CCCN3C)nc3c2CCN(c2cccc4cccc(Cl)c24)C3)CC1CC#N (stereo not given) + CCN1C(C(=O)NC23CCC(C(=O)O)(CC2)CC3)C(c2cccc(Cl)c2F)C2(C(=O)Nc3cc(Cl)ccc32)C12CCCCC2
1580 nM: IC50 (second compound 3 µM)
1100 nM: IC50 (second compound 0.03 µM)
active: viability, T/C [5] 7.9% | viability, T/C [6] 0.1% | viability, T/C [12] 0.11% | viability, T/C [17] 10.4% | viability, T/C [18] 0.1% | viability, T/C [23] 5.95% | viability, T/C [24] 0.11% | viability, T/C [29] 7.46% | viability, T/C [30] 0.15%
inactive: viability, T/C [1] 97.6% | viability, T/C [2] 95.3% | viability, T/C [3] 103% | viability, T/C [4] 54% | viability, T/C [7] 98.4% | viability, T/C [8] 98.2% | viability, T/C [9] 85.2% | viability, T/C [10] 59.8% | viability, T/C [11] 8.82% | viability, T/C [13] 89.2% | viability, T/C [14] 104% | viability, T/C [15] 105% | viability, T/C [16] 50.5% | viability, T/C [19] 93% | viability, T/C [20] 88.3% | viability, T/C [21] 78.2% | viability, T/C [22] 63.9% | viability, T/C [25] 107% | viability, T/C [26] 86.2% | viability, T/C [27] 81.7% | viability, T/C [28] 78.1%
1010 nM: IC50 (second compound 0.3 µM)
1200 nM: IC50 (second compound 0.0949 µM)
1300 nM: IC50 (second compound 0.949 µM)

C=CC(=O)N1CCN(c2nc(=O)n(-c3c(C)ccnc3C(C)C)c3nc(-c4c(O)cccc4F)c(F)cc23)C(C)C1 (stereo not given) + CCN1C(C(=O)NC23CCC(C(=O)O)(CC2)CC3)C(c2cccc(Cl)c2F)C2(C(=O)Nc3cc(Cl)ccc32)C12CCCCC2
inactive: viability, T/C [1] 96.1% | viability, T/C [2] 101% | viability, T/C [3] 108% | viability, T/C [4] 86.2% | viability, T/C [5] 114% | viability, T/C [6] 76.1% | viability, T/C [7] 102% | viability, T/C [8] 106% | viability, T/C [9] 103% | viability, T/C [10] 106% | viability, T/C [11] 96.5% | viability, T/C [12] 70.5% | viability, T/C [13] 88.8% | viability, T/C [14] 102% | viability, T/C [15] 102% | viability, T/C [16] 106% | viability, T/C [17] 107% | viability, T/C [18] 85.7% | viability, T/C [19] 102% | viability, T/C [20] 91.2% | viability, T/C [21] 128% | viability, T/C [22] 100% | viability, T/C [23] 94.9% | viability, T/C [24] 78.3% | viability, T/C [25] 100% | viability, T/C [26] 87.6% | viability, T/C [27] 97.9% | viability, T/C [28] 96.3% | viability, T/C [29] 90.4% | viability, T/C [30] 77.9%
> 10000 nM: IC50 (second compound 0.03 µM) | IC50 (second compound 0.0949 µM) | IC50 (second compound 0.3 µM) | IC50 (second compound 0.949 µM) | IC50 (second compound 3 µM)

CNC(C)C(=O)NC1CN(S(=O)(=O)c2cccc(S(=O)(=O)N3CCC4CCC(C(=O)NC(c5ccccc5)c5ccccc5)N4C(=O)C(NC(=O)C(C)NC)C3)c2)CCC2CCC(C(=O)NC(c3ccccc3)c3ccccc3)N2C1=O (stereo not given) + CCN1C(C(=O)NC23CCC(C(=O)O)(CC2)CC3)C(c2cccc(Cl)c2F)C2(C(=O)Nc3cc(Cl)ccc32)C12CCCCC2
inactive: viability, T/C (second compound 0.03 µM, first compound 0.00316 µM) 71.4% | viability, T/C (second compound 0.03 µM, first compound 0.01 µM) 62.7% | viability, T/C [1] 57.5% | viability, T/C [2] 57% | viability, T/C [3] 58% | viability, T/C [4] 51.7% | viability, T/C (second compound 0.0949 µM, first compound 0.00316 µM) 61.2% | viability, T/C (second compound 0.0949 µM, first compound 0.01 µM) 69.8% | viability, T/C [7] 65% | viability, T/C [8] 68.7% | viability, T/C [9] 53.7% | viability, T/C [10] 57.3% | viability, T/C (second compound 0.3 µM, first compound 0.00316 µM) 64.9% | viability, T/C (second compound 0.3 µM, first compound 0.01 µM) 79.5% | viability, T/C [13] 66.3% | viability, T/C [14] 53.9% | viability, T/C [15] 62.6% | viability, T/C [16] 59.4% | viability, T/C (second compound 0.949 µM, first compound 0.00316 µM) 77.3% | viability, T/C (second compound 0.949 µM, first compound 0.01 µM) 64.3% | viability, T/C [19] 62.7% | viability, T/C [20] 65.2% | viability, T/C [21] 55.9% | viability, T/C [22] 61.1% | viability, T/C (second compound 3 µM, first compound 0.00316 µM) 77.9% | viability, T/C (second compound 3 µM, first compound 0.01 µM) 66.8% | viability, T/C [25] 59.2% | viability, T/C [26] 48.3% | viability, T/C [27] 53.5% | viability, T/C [28] 47.7%
287 nM: IC50 (second compound 3 µM)
> 1000 nM: IC50 (second compound 0.03 µM) | IC50 (second compound 0.0949 µM) | IC50 (second compound 0.3 µM) | IC50 (second compound 0.949 µM)
